# Test results reported in patent US20260150798A1, “METHODS AND COMPOSITIONS FOR IMPROVED PLANT REGENERATION FROM MICROSPORE-DERIVED EMBRYOS” (Monsanto Technology LLC, priority 2022, published 2026).
# “Also recorded” adds a separate entry of the source.
# System: microspore-derived embryos from 10 proprietary canola lines
# Assay: Culture-free maturation and regeneration of microspore-derived embryos in soil, canola
# Type: in vivo
# Conditions: 5 mg/L added to MDE Maturation Medium, about 1 to about 24 hours before transfer to soil
# Method: The optimal time to dilute the microspore-derived embryos to a concentration of about 200 to about 400 embryos per plate containing 15 mL medium is about 15 days to about 20 days after the beginning microspore culture initiation (days after culture) (DAC). At this stage, the embryos are green, individually distinguishable with the naked eye, and the majority are in the torpedo stage of development. During the dilution step the embryogenesis induction medium (NLN13) is replaced with MDE Maturation Medium. The microspore-derived embryos were diluted by transferring about 200 to about 400 embryos to a new plate containing 15 mL of MDE Maturation Medium. If the original plates have a starting concentration of about 200 embryos per plate or less, then the media of the original plate is replaced with MDE Maturation Medium without embryo dilution. Following dilution and/or media replacement, plates were returned to 100 μmol fluorescent light for a 16 hour photoperiod, 25° C. day and night with an orbital shaker set to 60 RPM, and cultured to about 28 to about 30 DAC to reach a matured cotyledon stage before transferring to a solid regeneration medium. […] Regeneration rate was measured after 28 days of incubation. Microspore-derived embryos from 10 proprietary canola lines were analyzed in a series of protocols to identify optimized conditions for culture-free maturation and regeneration. […]
smiles,measurement,value
"O=C(O)CCCc1c[nH]c2ccccc12 [IBA, indole-3-butyric acid]","effect on rooting, plantlet survival and establishment in soil",accelerates rooting and increases plantlet survival and establishment in soil; also recorded: improves rooting
